Laboratory results taken from patent US7407939B2, “Protein kinase inhibitors comprising ATP mimetics conjugated to peptides or peptidomimetics” (CureGenics Ltd., priority 2001, dated 2008).
Where two headings read alike, the source gives them in different places. *1 amine or outer side, *2 acyl side, *3 side chain or, on linkers, in order; H or OH if unused. Where a SMILES comes first, the peptide text is derived from it. Where no end group is shown, it is not given here. Side-chain parts run from the residue outwards. [ ]: non-standard residue; d: D form. The star is where a group is joined. X1 = 5‑aminoethylsulfonamide isoquinoline, O=S(=O)(NCCN*)c1cccc2cnccc12; Isoquinoline5sulfonyl = O=S(=O)(c1cccc2cnccc12)*; Ethylenediamine = C(CN[*:2])N[*:1]; hLeu = CC(C)CC[C@H](N)C(=O)O; Nle = CCCC[C@H](N)C(=O)O; Orn = NCCC[C@H](N)C(=O)O; Dab = NCC[C@H](N)C(=O)O; Nva = CCC[C@H](N)C(=O)O; Abu = CC[C@H](N)C(=O)O; Dap = NC[C@H](N)C(=O)O; βAla = NCCC(=O)O

Legend:
PKB = biological target: T1, PKB (Homo sapiens, UniProt P31749); assay: PKB in vitro kinase activity assay (soluble His-HA-PKB / SPA bead screening); assay type: biochemical; set-up: % Inhibition PKB I / % Inhibition PKB II: concentration or dose not given beside the values; conditions: for PKB-kinase (spa) Assay 1, % inhibition of kinase activity / PKB-kinase (spa) Assay 2, % inhibition of kinase activity / inhibition at 1 µM: 1 μM compound concentration
T1 construct: His; HA; made in house
T1 sequence (P31749 whole entry, species assumed): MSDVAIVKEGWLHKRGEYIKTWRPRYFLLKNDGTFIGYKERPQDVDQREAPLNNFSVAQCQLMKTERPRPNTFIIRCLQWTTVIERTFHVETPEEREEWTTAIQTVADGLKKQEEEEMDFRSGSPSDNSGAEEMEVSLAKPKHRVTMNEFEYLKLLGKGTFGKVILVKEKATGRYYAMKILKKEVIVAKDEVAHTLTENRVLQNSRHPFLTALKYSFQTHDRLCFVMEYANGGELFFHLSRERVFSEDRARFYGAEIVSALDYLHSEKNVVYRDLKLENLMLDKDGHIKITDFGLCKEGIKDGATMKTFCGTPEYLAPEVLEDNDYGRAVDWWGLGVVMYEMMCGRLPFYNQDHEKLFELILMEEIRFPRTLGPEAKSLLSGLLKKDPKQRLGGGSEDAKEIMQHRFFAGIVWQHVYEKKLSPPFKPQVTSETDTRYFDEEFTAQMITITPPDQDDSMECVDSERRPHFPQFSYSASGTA

PKA = biological target: T2, PKA (Bos taurus, UniProt P00517); assay: In vitro PKA kinase activity assay (kemptide / SPA beads); assay type: biochemical; set-up: % Inhibition PKA: concentration or dose not given beside the values; conditions: for PKA-kinase Assay 1, % inhibition of kinase activity / PKA-kinase Assay 2, % inhibition of kinase activity / inhibition at 1 µM: 1 μM compound concentration; for % Inhibition PKA: plate screening;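 as to all read-outs here: Cell-free assay of purified PKA catalytic subunit phosphorylating the 7-mer kemptide substrate, run in MOPS buffer with magnesium acetate and BSA, with blank wells lacking enzyme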
T2 construct: purchased Promega

[1] = Table 10, accurate IC50 curve, peptide moiety alone, read-out: IC50 μM PKB
[2] = plate screening, peptide moiety alone
[3] = Table 10, accurate IC50 curve, peptide moiety alone, read-out: IC50 μM PKA
[4] = Assay 1, read-out: PKB-kinase (spa) Assay 1, % inhibition of kinase activity
[5] = Assay 2, read-out: PKB-kinase (spa) Assay 2, % inhibition of kinase activity
[6] = Table 1, most preferred compounds, read-out: IC50 PKB
[7] = Assay 1, read-out: PKA-kinase Assay 1, % inhibition of kinase activity
[8] = Assay 2, read-out: PKA-kinase Assay 2, % inhibition of kinase activity
[9] = Table 1, most preferred compounds, read-out: IC50 PKA
[10] = Table 6, most active compounds from plate TY-60020, read-out: IC50 PKB
[11] = Table 6, most active compounds from plate TY-60020, read-out: IC50 PKA

Row | Compound | PKB-kinase (spa) Assay 1, % inhibition of kinase activity (PKB; Assay 1) [%] | PKB-kinase (spa) Assay 2, % inhibition of kinase activity (PKB; Assay 2) [%] | PKA-kinase Assay 1, % inhibition of kinase activity (PKA; Assay 1) [%] | PKA-kinase Assay 2, % inhibition of kinase activity (PKA; Assay 2) [%] | inhibition at 1 µM (PKB; [4]) [%] | inhibition at 1 µM (PKB; [5]) [%] | other results
1 | 60020-37: Arg-Pro-Arg-Dap-Glu(Gly-5-aminoethylsulfonamide isoquinoline)-Ala-Phe (RPR[Dap]E([Gly-X1])AF) | 53 | 44 | 98 | 99 | – | – | –
2 | 60020-38: Arg-Pro-Arg-Dap-Glu(Gly-5-aminoethylsulfonamide isoquinoline)-Ala-Hol (RPR[Dap]E([Gly-X1])A[hLeu]) | 49 | 49 | 98 | 99 | – | – | –
3 | 60020-43: Arg-Pro-Arg-Orn-Glu(Gly-5-aminoethylsulfonamide isoquinoline)-Orn-Phe (RPR[Orn]E([Gly-X1])[Orn]F) | 48 | 62 | 96 | 96 | – | – | –
4 | 60020-44: Arg-Pro-Arg-Orn-Glu(Gly-5-aminoethylsulfonamide isoquinoline)-Orn-Hol (RPR[Orn]E([Gly-X1])[Orn][hLeu]) | 54 | 67 | 95 | 95 | – | – | –
5 | 60020-49: Arg-Pro-Arg-Abu-Glu(Gly-5-aminoethylsulfonamide isoquinoline)-Dab-Phe (RPR[Abu]E([Gly-X1])[Dab]F) | 66 | 66 | 95 | 95 | – | – | –
6 | 60020-50: Arg-Pro-Arg-Abu-Glu(Gly-5-aminoethylsulfonamide isoquinoline)-Dab-Hol (RPR[Abu]E([Gly-X1])[Dab][hLeu]) | 60 | 54 | 97 | 97 | – | – | –
7 | 60020-51: Arg-Pro-Arg-Abu-Glu(Gly-5-aminoethylsulfonamide isoquinoline)-Orn-Phe (RPR[Abu]E([Gly-X1])[Orn]F) | 47 | 37 | 94 | 95 | – | – | –
8 | 60020-52: Arg-Pro-Arg-Abu-Glu(Gly-5-aminoethylsulfonamide isoquinoline)-Orn-Hol (RPR[Abu]E([Gly-X1])[Orn][hLeu]) | 56 | 53 | 92 | 92 | – | – | –
9 | 60020-60: Arg-Pro-Arg-Nle-Glu(Gly-5-aminoethylsulfonamide isoquinoline)-Orn-Hol (RPR[Nle]E([Gly-X1])[Orn][hLeu]) | 59 | 70 | 87 | 89 | – | – | –
10 | CCC[C@H](NC(=O)[C@H](CCCNC(=N)N)NC(=O)[C@@H]1CCCN1C(=O)[C@@H](N)CCCNC(=N)N)C(=O)N[C@@H](CO)C(=O)N[C@@H](C)C(=O)N[C@@H](Cc1ccccc1)C(N)=O [60002-38] (H-RPR[Nva]SAF-NH2; N-terminus and C-terminus assumed) | – | – | – | – | – | – | IC50 (PKB; [1]): 18 µM; % Inhibition PKB I (PKB; [2]): 43%; IC50 (PKA; [3]): 80 µM; % Inhibition PKA (PKA; peptide moiety alone): −2%
11 | CCC[C@H](NC(=O)[C@H](CCCNC(=N)N)NC(=O)[C@@H]1CCCN1C(=O)[C@@H](N)CCCNC(=N)N)C(=O)NCC(=O)N[C@@H](C)C(=O)N[C@@H](CCC(C)C)C(N)=O [60006-18A] (H-RPR[Nva]GA[hLeu]-NH2; N-terminus and C-terminus assumed) | – | – | – | – | – | – | IC50 (PKB; [1]): 9.45 µM; % Inhibition PKB I (PKB; [2]): 47%; % Inhibition PKB II (PKB; plate screening, peptide moiety alone, PKB II): 52%; IC50 (PKA; [3]): > 100 µM; % Inhibition PKA (PKA; peptide moiety alone): 11%
12 | CC(C)CC[C@H](NC(=O)[C@H](CCN)NC(=O)[C@H](CCC(=O)NCC(=O)NCCNS(=O)(=O)c1cccc2cnccc12)NC(=O)[C@H](CCCN)NC(=O)[C@H](CCCNC(=N)N)NC(=O)[C@@H]1CCCN1C(=O)[C@@H](N)CCCNC(=N)N)C(N)=O [60020-42, Arg-Pro-Arg-Orn-Glu-(Gly-5-aminoethylsulfonamide)-Dab-Hol] (H-RPR[Orn]E([Gly-Ethylenediamine-Isoquinoline5sulfonyl])[Dab][hLeu]-NH2) | – | – | – | – | 80 | 86 | IC50 (PKB; [6]): 0.11 µM; inhibition at 1 µM (PKA; [7]): 99%; inhibition at 1 µM (PKA; [8]): 99%; IC50 (PKA; [9]): 0.05 µM
13 | CCCC[C@H](NC(=O)[C@H](CCCNC(=N)N)NC(=O)[C@@H]1CCCN1C(=O)[C@@H](N)CCCNC(=N)N)C(=O)N[C@@H](CCC(=O)NCC(=O)NCCNS(=O)(=O)c1cccc2cnccc12)C(=O)N[C@@H](CCN)C(=O)N[C@@H](Cc1ccccc1)C(N)=O [60020-57, Arg-Pro-Arg-Nle-Glu-(Gly-5-aminoethylsulfonamide)-Dab-Phe] (H-RPR[Nle]E([Gly-Ethylenediamine-Isoquinoline5sulfonyl])[Dab]F-NH2) | – | – | – | – | 92 | 93 | IC50 (PKB; [6]): 0.07 µM; inhibition at 1 µM (PKA; [7]): 95%; inhibition at 1 µM (PKA; [8]): 96%; IC50 (PKA; [9]): 0.21 µM
14 | CCCC[C@H](NC(=O)[C@H](CCCNC(=N)N)NC(=O)[C@@H]1CCCN1C(=O)[C@@H](N)CCCNC(=N)N)C(=O)N[C@@H](CCC(=O)NCC(=O)NCCNS(=O)(=O)c1cccc2cnccc12)C(=O)N[C@@H](CCN)C(=O)N[C@@H](CCC(C)C)C(N)=O [60020-58, Arg-Pro-Arg-Nle-Glu-(Gly-5-aminoethylsulfonamide)-Dab-Hol] (H-RPR[Nle]E([Gly-Ethylenediamine-Isoquinoline5sulfonyl])[Dab][hLeu]-NH2) | – | – | – | – | 89 | 93 | IC50 (PKB; [6]): 0.12 µM; inhibition at 1 µM (PKA; [7]): 98%; inhibition at 1 µM (PKA; [8]): 99%; IC50 (PKA; [9]): 0.05 µM
15 | CCCC[C@H](NC(=O)[C@H](CCCNC(=N)N)NC(=O)[C@@H]1CCCN1C(=O)[C@@H](N)CCCNC(=N)N)C(=O)N[C@@H](CCC(=O)NCC(=O)NCCNS(=O)(=O)c1cccc2cnccc12)C(=O)N[C@@H](CCCN)C(=O)N[C@@H](Cc1ccccc1)C(N)=O [60020-59] (H-RPR[Nle]E([Gly-Ethylenediamine-Isoquinoline5sulfonyl])[Orn]F-NH2; N-terminus assumed) | – | – | – | – | 62 | 75 | IC50 (PKB; [10]): 0.3 µM; inhibition at 1 µM (PKA; [7]): 92%; inhibition at 1 µM (PKA; [8]): 93%; IC50 (PKA; [11]): 0.2 µM
16 | N=C(N)NCCC[C@H](NC(=O)[C@@H]1CCCN1C(=O)[C@@H](N)CCCNC(=N)N)C(=O)N[C@@H](CN)C(=O)N[C@@H](CCC(=O)NCCC(=O)NCCNS(=O)(=O)c1cccc2cnccc12)C(=O)N[C@@H](CCCN)C(=O)N[C@@H](Cc1ccccc1)C(N)=O [60020-67] (H-RPR[Dap]E([βAla-Ethylenediamine-Isoquinoline5sulfonyl])[Orn]F-NH2; N-terminus assumed) | – | – | – | – | 51 | 68 | IC50 (PKB; [10]): 1.08 µM; IC50 (PKA; [11]): 0.25 µM
17 | CC(C)CC[C@H](NC(=O)[C@H](CCCN)NC(=O)[C@H](CCC(=O)NCCC(=O)NCCNS(=O)(=O)c1cccc2cnccc12)NC(=O)[C@H](CN)NC(=O)[C@H](CCCNC(=N)N)NC(=O)[C@@H]1CCCN1C(=O)[C@@H](N)CCCNC(=N)N)C(N)=O [60020-68] (H-RPR[Dap]E([βAla-Ethylenediamine-Isoquinoline5sulfonyl])[Orn][hLeu]-NH2; N-terminus assumed) | – | – | – | – | 61 | 74 | IC50 (PKB; [10]): 0.5 µM; IC50 (PKA; [11]): 0.25 µM
18 | CCCC[C@H](NC(=O)[C@H](CCCNC(=N)N)NC(=O)[C@@H]1CCCN1C(=O)[C@@H](N)CCCNC(=N)N)C(=O)N[C@@H](CCC(=O)NCCC(=O)NCCNS(=O)(=O)c1cccc2cnccc12)C(=O)N[C@@H](CCC)C(=O)N[C@@H](Cc1ccccc1)C(N)=O [60020-95] (H-RPR[Nle]E([βAla-Ethylenediamine-Isoquinoline5sulfonyl])[Nva]F-NH2; N-terminus assumed) | – | – | – | – | 46 | 90 | IC50 (PKB; [10]): 3.3 µM; IC50 (PKA; [11]): 2 µM
